The source of these data is US11980594B2, “Composition and method for treating a drug-resistant cancer” (NOVELWISE PHARMACEUTICAL CORPORATION, priority 2021, dated 2024).

Molecules are shown by their SMILES.

One assay relates to U87MG-R cells. The assay can be described thus: Flow cytometric analysis of the DNA cell cycle, U87MG-R. The conditions noted are these: 10 μM BMX alone, 48 hrs. The format is cell-based, human. The method, then: For the DNA cell cycle, following treatment with different doses of BMX (0-10 μM) in the presence or absence of TMZ (50 μM) for 48 hrs, the cells were harvested through trypsinization, washed twice with phosphate-buffered saline, and fixed in methanol. The cells were then washed again, subjected to RNase A at a final concentration of 0.05 mg/mL (Sigma-Aldrich; Merck Millipore, Darmstadt, Germany), and incubated with 10 μg/mL propidium iodide (PI; Sigma-Aldrich; Merck Millipore) at 4° C. for 15 min in the dark. Cell cycle analysis was conducted using a fluorescence-activated cell sorting (FACS) flow cytometer (Attune NxT flow cytometer, Thermo Fisher Scientific).

Another assay relates to HT29 cells. The assay can be described thus: Clonogenic (colony formation) assay, HT29. The format is cell-based. Particulars: Homo sapiens, HT-29, 336 h, 14 days, read-out: IC50 values of TMZ, clonogenic assay. The method, then: For the anchorage-dependent growth assay, 1000 cells were resuspended in the medium and seeded in 6-well plates. […] After 14 days, the media were removed and the cells were washed and fixed with 4% paraformaldehyde for 30 min, and stained with 0.1% crystal violet for 20 min at 25° C. The intensity of crystal violet was quantified by the absorbance of 570 nm after dissolving the stained cells with dimethyl sulfoxide (DMSO). The results are expressed as the average colony±SE from three independent experiments.

Turning to `COc1ccc(COc2c(/C=C/C(=O)NO)ccc(OC)c2CC=C(C)C)cc1` [BMX, (E)-2-(4-Methoxybenzyloxy)-3-prenyl-4-methoxy-N-hydroxycinamide], the “cells arrested in G0/G1 phase” value in the assay on U87MG-R cells came to 77.95%.
The term IC50 denotes the midpoint of a concentration-inhibition curve. With `Cn1nnc2c(C(N)=O)ncn2c1=O` [TMZ, Temozolomide, reference compound], in the assay with HT29 cells, the IC50 came to 359 ± 50.4 µM.
